Reference: PMC7545214, “Structural basis for energy transfer in a huge diatom PSI-FCPI supercomplex” (Nature Communications, 2020)

Assays:
[1] = target: T1, PSI core of the PSI-FCPI supercomplex (Chaetoceros neogracilis, UniProt A0A6J4B0E7+A0A6J4B109); experiment: cryo-EM structure, […] Å; assay type: binding; settings: two molecules bound to PsaA/B/R
T1 construct: gene psaA; native purification from thylakoids with DDM; PsaS modelled as polyalanine; with Photosystem I iron-sulfur center; Photosystem I reaction center subunit II; Photosystem I reaction center subunit IV; Photosystem I reaction center subunit III; Photosystem I reaction center subunit VIII; Photosystem I reaction center subunit IX; Photosystem I reaction center subunit XI; Photosystem I reaction center subunit XII; Photosystem I subunit PsaR; Photosystem I subunit PsaS
T1 sequence (A0A6J4B0E7 1-733, one chain of several): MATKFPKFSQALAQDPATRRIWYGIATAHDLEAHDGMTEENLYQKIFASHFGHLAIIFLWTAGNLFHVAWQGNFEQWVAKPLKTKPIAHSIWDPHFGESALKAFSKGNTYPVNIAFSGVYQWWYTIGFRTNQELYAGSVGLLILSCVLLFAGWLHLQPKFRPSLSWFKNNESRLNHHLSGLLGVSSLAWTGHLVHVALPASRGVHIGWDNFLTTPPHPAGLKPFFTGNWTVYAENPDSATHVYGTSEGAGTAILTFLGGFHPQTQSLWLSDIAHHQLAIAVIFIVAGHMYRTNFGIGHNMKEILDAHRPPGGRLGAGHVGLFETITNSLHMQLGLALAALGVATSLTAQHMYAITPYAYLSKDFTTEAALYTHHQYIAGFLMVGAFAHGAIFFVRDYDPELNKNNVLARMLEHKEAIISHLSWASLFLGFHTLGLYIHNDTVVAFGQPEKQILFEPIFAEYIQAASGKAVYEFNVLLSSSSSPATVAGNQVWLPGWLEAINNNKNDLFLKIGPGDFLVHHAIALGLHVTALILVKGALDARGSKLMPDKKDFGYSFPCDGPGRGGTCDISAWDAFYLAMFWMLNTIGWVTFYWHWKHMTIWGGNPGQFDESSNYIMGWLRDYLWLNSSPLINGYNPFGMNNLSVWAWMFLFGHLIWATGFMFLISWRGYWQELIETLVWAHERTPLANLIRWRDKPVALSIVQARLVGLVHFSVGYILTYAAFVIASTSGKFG

PsaR = target: T2, PsaR (Chaetoceros neogracilis, UniProt A0A6J4B118); experiment: cryo-EM structure, […] Å; assay type: binding; settings: one molecule
T2 construct: gene psa28; native, within the PSI-FCPI supercomplex; 89 residues, two transmembrane helices; next to PsaB and FCPI-8/9/10
T2 sequence (A0A6J4B118 51-139): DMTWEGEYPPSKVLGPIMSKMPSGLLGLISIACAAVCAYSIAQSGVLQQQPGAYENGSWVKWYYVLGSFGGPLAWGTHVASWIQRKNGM

cryo-EM structure, 2.38 Å (PsaR)	SMILES	cryo-EM structure, 2.38 Å ([1]; chain of each in supplement)	cryo-EM structure, 2.38 Å ([1]; one of them on PsaR)
–	CC1=C(C#C/C(C)=C/C=C/C(C)=C/C=C/C=C(C)/C=C/C=C(C)/C=C/[C@@]23O[C@]2(C)C[C@@H](O)CC3(C)C)C(C)(C)C[C@H](O)C1 [diadinoxanthin]	two Ddx and two Fx were identified in the diatom PSI core	–
binds one Chl a and one Fx	CC(=O)O[C@H]1CC(C)(C)C(=C=C/C(C)=C/C=C/C(C)=C/C=C/C=C(C)/C=C/C=C(\C)C(=O)C[C@@]23O[C@]2(C)C[C@@H](O)CC3(C)C)[C@](C)(O)C1 [fucoxanthin]	–	two Ddx and two Fx were identified in the diatom PSI core
